We go through 27 compounds from ChEMBL document CHEMBL1250468, “Synthesis of aryl-heteroaryl ureas (AHUs) based on 4-aminoquinoline and their evaluation against the insulin-like growth factor receptor (IGF-1R)” (Bioorg Med Chem, 2010).

The structures appear in SMILES notation.

Insulin-like growth factor 1 receptor, sequence (P08069 31-736 limits assumed): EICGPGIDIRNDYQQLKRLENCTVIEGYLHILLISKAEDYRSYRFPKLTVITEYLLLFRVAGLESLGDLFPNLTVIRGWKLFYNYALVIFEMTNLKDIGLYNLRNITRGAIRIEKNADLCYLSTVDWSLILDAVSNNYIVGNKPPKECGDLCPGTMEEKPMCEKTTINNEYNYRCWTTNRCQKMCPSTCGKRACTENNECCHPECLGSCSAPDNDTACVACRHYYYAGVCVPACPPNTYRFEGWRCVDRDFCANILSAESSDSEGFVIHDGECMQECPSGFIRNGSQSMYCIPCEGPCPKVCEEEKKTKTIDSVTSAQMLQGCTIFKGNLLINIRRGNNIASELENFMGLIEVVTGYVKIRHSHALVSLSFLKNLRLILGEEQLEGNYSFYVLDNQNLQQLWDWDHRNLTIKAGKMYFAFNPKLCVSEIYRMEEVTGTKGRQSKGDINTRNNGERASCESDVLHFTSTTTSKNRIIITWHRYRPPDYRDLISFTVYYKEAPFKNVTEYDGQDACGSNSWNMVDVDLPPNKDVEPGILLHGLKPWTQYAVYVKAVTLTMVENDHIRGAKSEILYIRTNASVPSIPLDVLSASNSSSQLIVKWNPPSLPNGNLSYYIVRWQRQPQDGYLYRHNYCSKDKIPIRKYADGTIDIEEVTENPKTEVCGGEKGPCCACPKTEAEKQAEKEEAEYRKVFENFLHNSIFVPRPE
Insulin-like growth factor 1 receptor, sequence (P08069 741-1367 limits assumed): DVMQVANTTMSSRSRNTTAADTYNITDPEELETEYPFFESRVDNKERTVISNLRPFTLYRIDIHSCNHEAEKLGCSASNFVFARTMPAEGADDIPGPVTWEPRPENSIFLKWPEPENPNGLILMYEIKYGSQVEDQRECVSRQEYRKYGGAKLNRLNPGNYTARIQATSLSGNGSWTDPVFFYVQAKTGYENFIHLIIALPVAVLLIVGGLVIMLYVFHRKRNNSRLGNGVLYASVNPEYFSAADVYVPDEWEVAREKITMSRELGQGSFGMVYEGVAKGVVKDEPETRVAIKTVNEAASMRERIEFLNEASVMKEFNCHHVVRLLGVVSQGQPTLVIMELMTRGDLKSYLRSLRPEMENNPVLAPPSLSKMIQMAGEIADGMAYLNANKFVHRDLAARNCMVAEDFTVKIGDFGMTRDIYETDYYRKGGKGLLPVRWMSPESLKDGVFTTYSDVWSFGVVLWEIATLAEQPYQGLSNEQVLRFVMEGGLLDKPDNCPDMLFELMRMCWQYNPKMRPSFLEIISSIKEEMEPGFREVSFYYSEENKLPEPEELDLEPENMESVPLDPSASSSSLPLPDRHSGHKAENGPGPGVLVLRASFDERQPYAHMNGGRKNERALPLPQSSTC

The experiment addresses Insulin-like growth factor 1 receptor (Homo sapiens, UniProt P08069). Nature of the experiment: Inhibition of recombinant IGF1R by ELISA.
As for `COc1ccc(NC(=O)Nc2cc(Cl)nc3ccccc23)cc1`, the IC50 is > 30 µM. As for `COc1ccc(Cl)cc1NC(=O)Nc1cc(C)nc2ccccc12`, the figure is 18.7 µM; as for `O=C(Nc1ccc(OC(F)(F)F)cc1)Nc1cc(C(F)(F)F)nc2ccccc12`, 6.7 µM. As for `COc1cc(OC)c(NC(=O)Nc2cc(C)nc3cnccc23)cc1Cl`, the figure is > 30 µM; as for `Cc1cncc(Oc2ccc(NC(=O)Nc3cc(Cl)nc4ccccc34)cc2)n1`, > 30 µM; as for `COc1ccc(Cl)cc1NC(=O)Nc1cc(=O)[nH]c2ccccc12`, 6.5 µM. Turning to `O=C(Nc1ccc(-c2ncccn2)cc1)Nc1cc(Cl)nc2ccccc12`, the IC50 is > 30 µM. Consider `Cc1cc(NC(=O)Nc2cccc(-c3ncccn3)c2)c2ccccc2n1`, for which the IC50 is > 30 µM.

`O=C(Nc1ccc(Cl)cc1)Nc1cc(Cl)nc2ccccc12`: the IC50 worked out at 21.1 µM.

As for `Cc1cncc(Oc2ccc(NC(=O)Nc3cc(C)nc4ncccc34)cc2)n1`, the IC50 came to 12.5 µM. For `Cc1cncc(Oc2ccc(NC(=O)Nc3cc(C)nc4ccccc34)cc2)n1`, the IC50 was determined as 5.6 µM. For the compound `COc1ccc(Cl)cc1NC(=O)Nc1cc(C)nc2ncccc12`, the IC50 was determined as 24.7 µM.

Take `COc1ccc(Cl)cc1NC(=O)Nc1cc(C)nc2cnccc12`: the IC50 was > 30 µM. With `COc1ccc(NC(=O)Nc2cc(C)nc3ccccc23)cc1Cl`, the IC50 was > 30 µM. In the case of `O=C(Nc1cccc(-c2ncccn2)c1)Nc1cc(C(F)(F)F)nc2ccccc12`, the IC50 is > 30 µM. Turning to `COc1ccc(NC(=O)Nc2cc(Cl)nc3ccccc23)cc1Cl`, the IC50 was > 30 µM.

For the compound `COc1ccc(NC(=O)Nc2cc(C(F)(F)F)nc3ccccc23)cc1`, the concentration for half-maximal inhibition (IC50) was > 30 µM. With `COc1ccc(Cl)cc1NC(=O)Nc1cc(Cl)nc2ccccc12`, the IC50 worked out at 14.9 µM. `O=C(Nc1ccc(-c2ncccn2)cc1)Nc1cc(C(F)(F)F)nc2ccccc12`: the 50% inhibitory concentration (IC50) is 19.3 µM. As for `Cc1cc(NC(=O)Nc2ccc(Cl)cc2)c2ccccc2n1`, the figure is > 30 µM. Then `Cc1cncc(Oc2ccc(NC(=O)Nc3cc(C(F)(F)F)nc4ccccc34)cc2)n1`, with 5.2 µM; and `COc1ccc(Cl)cc1NC(=O)Nc1cc(C)nc2c1CCCN2`, with 20.5 µM. For the compound `O=C(Nc1ccc([N+](=O)[O-])cc1)Nc1cc(C(F)(F)F)nc2ccccc12`, the IC50 is 27.1 µM. In the case of `Cc1cc(NC(=O)Nc2ccc(-c3ncccn3)cc2)c2ccccc2n1`, the IC50 is > 30 µM. For the compound `O=C(Nc1cccc(-c2ncccn2)c1)Nc1cc(Cl)nc2ccccc12`, the IC50 was > 30 µM.

Take `O=C(Nc1ccc(OC(F)(F)F)cc1)Nc1cc(Cl)nc2ccccc12`: the IC50 was 21.4 µM.

For the compound `O=C(Nc1ccc(Cl)cc1)Nc1cc(C(F)(F)F)nc2ccccc12`, the 50% inhibitory concentration (IC50) worked out at 28.1 µM.
